# According to US7501233B2, “Method for measuring the vitality of cells” (priority 2000, dated 2009):
# *1 amine or outer side, *2 acyl side, *3 side chain or, on linkers, in order; H or OH if unused. Where a SMILES comes first, the peptide text is derived from it. Bridges are numbered along the chain shown (N, C = ends). Roman numbers before positions name the chains, in order. [ ]: non-standard residue; d: D form. Actinocin(9to1) = Cc1c2oc3c(C)ccc(C(=O)[*:1])c3nc-2c(C(=O)[*:2])c(N)c1=O; NMeV = CN[C@H](C(=O)O)C(C)C; Sar = CNCC(=O)O
# System: Jurkat cells
# Assay: Electrorotation measurement (ER spectra) of single cells in a microelectrode field cage
# Format: cell-based
# Text: An instrument already described by C. C. Reichle, T. Schnelle, T. Müller, T. Leya and G. Fuhr (2000, A new microsystem for automatic electrorotation measurements using laser tweezers, Biochimica et Biophysica Acta 1459, p. 218- 229), a combination of dielectrophoretical field cages with optical traps, especially laser tweezers, was used for determination of the electrorotation spectra (FIG. 6). […] Reichle and G. Fuhr 2000, Combined dielectrophoretic field cages and laser tweezers for electrorotation, Applied Physics B, Lasers and Optics, Springer Verlag.
# Jurkat T lymphoma cells and U937 monocytic cells were cultivated in RPMI-1640 medium supplemented with 10% fetal calf serum and 100 IU/ml penicillin as well as 100 IU/ml streptomycin. Apoptosis was triggered by addition of 5 μg/ml actinomycin D in a culture that was seeded the day before with 2×10^5 cells per ml. The classical morphological changes during apoptosis were documented photographically (see FIG. 1). At different times, an aliquot was taken from the culture, added to a mixture of isotonic phosphate buffer (PBS, D8662 from SIGMA with calcium and magnesium) and, if desired, 0.3 M inositol with correspondingly indicated electrical conductivity, and introduced in a device for measurement of the electrorotation in a microelectrode system. As a control, untreated Jurkat cells were used (FIG. 5). For comparison, electrorotation spectra (ER spectra) were determined from ionomycin-treated cells ([…]) as well as from cells the plasma membrane of which had been damaged by increasing the voltage from 4 V to 6.8 V or a treatment with optical tweezers with 30-60 mW (2.8 A of the 1 W Nd:YAG laser, TEM00, 1064 nm, LD 3000i, Laser Quantum Ltd., Manchester, UK, P.A.L.M. System) for 15 minutes. For this, the cells were transferred individually to the center of the quadrupole or octupole of the microelectrode system. For this, optical tweezers with a power of approx. 30 mW were used in the indicated cases at the site of holding. The frequency of the cell rotation was measured either automatically or using a timer (FIG. 2). The uptake of propidium iodine (5 μm) in necrotically damaged cells or comparative measurements with vital and apoptotic cells (FIGS. 3 and 4) was measured by confocal nanofluorometry (Gradl, T. Müller, C. Reichle, T. Schnelle and G. Fuhr, 1999, Micro-Electrode Systems for Cell Analysis, European Journal of Cell Biology, Suppl. 49, Vol. 78; T. Schnelle, T. Müller, G. Gradl, S. G. Shirley and G. Fuhr, 2000, Dielectrophoretic manipulation of suspended submicron particles, ELECTROPHORESIS 2000, 21, p. 66-73).
# The device for measurement of the electrorotation was attached to a fluorescence correlation spectrometer. The cells were made visible over a 40×W 1.2 NA lens. They were excited with 1.5 μW by a helium-neon laser with a wavelength of 543 nm and the radiated fluorescence was passed through a 585 DF 35 band pass filter over a 50 μm pinhole to a photodiode, with which the fluorescence photons were counted.
# [1] = ionomycin-treated cell vs. untreated cell, PBS
SMILES,"dielectric constant εω in the cell (ionomycin 10 μM, Jurkat cell in PBS, from fits of ER spectra, increase from 45 (untreated))","conductivity σ (as sum of σ0, Δσ1 and Δσ2) in the cell (ionomycin 10 μM, approx. 5 min, Jurkat cell in PBS, from fits of ER spectra, increase from 0.77 (untreated)) [s m^−1]",increase in the HF conductivity of the cytoplasm [1],increase of the dielectric constant of the cytoplasm [1],"ratio of rotation speed at 10 MHz to rotation speed at 2.5 MHz (apoptotic Jurkat cell (actinomycin D, 4 hours), normal cell near 1, necrotic 0.6-0.8)","field frequency of highest rotation speed in ER spectrum (apoptotic Jurkat cell, 5 μg/ml actinomycin D for 4 hours (FIG. 2E), normal cell maximum around 2.5 MHz)"
"C[C@H](CCC(=O)O)C[C@H](C)C[C@H](C)C(=O)/C=C(\O)[C@H](C)C[C@H](C)C/C=C/[C@@H](C)[C@@H](O)[C@@H](C)[C@@H](O)C[C@@H]1CC[C@@](C)([C@H]2CC[C@@](C)([C@@H](C)O)O2)O1 [ionomycin, Ionomycin]",75,1.15,approx. 40%,more than 60%,,
"Cc1c2oc3c(C)ccc(C(=O)N[C@@H]4C(=O)N[C@H](C(C)C)C(=O)N5CCC[C@H]5C(=O)N(C)CC(=O)N(C)[C@@H](C(C)C)C(=O)O[C@@H]4C)c3nc-2c(C(=O)N[C@@H]2C(=O)N[C@H](C(C)C)C(=O)N3CCC[C@H]3C(=O)N(C)CC(=O)N(C)[C@@H](C(C)C)C(=O)O[C@@H]2C)c(N)c1=O [actinomycin D, Actinomycin D] (I: T[dV]P[Sar][NMeV] / II: T[dV]P[Sar][NMeV]; ester I:1-I:C, II:1-II:C; linker I:N-II:N via Actinocin(9to1))",,,,,1.4,approx. 10 MHz
